From patent publication US12139488B2, “Pyrido[3,2-d]pyrimidine compounds uses thereof for treating a proliferative disease” (Universite de Montreal, priority 2021, dated 2024) come the findings set out here.

The IC50 is the concentration that inhibits the measured activity by half.

Read-outs that look alike come from different tables or passages of the source. Where only a bound is given, the exact number is not on record here.

For experiment [1], the system named is pERK in HCT-116 cells (KRAS G13D). Put plainly: Phospho-ERK inhibition (AlphaLISA SureFire Ultra p-ERK 1/2), HCT116. It counts as cell-based, human. As to conditions: for HCT116 pERK % Ymin (lowest value of the IC50 curve): Ymin above −20% = minimal or no paradoxical activation. In short, it runs like this:
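Cells plated in RPMI-1640 with 5% FBS, kept overnight at 37° C, then treated 1 h with ten-point dilutions (top usually 10 μM; 0.5% DMSO). Lysate p-ERK1/2 (Thr202/Tyr204) read by AlphaLISA SureFire Ultra. % inhibition set against DMSO after subtracting the trametinib background; IC50 from four-parameter fit.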

For experiment [2], the target named is CRAF (Homo sapiens, UniProt P04049). Description: CRAF kinase activity assay (ADP-Glo). It counts as biochemical. How it is done:
(§1) Compound preparation: solid samples of each substances in 1 dram vials were suspended in DMSO (Fisher Scientific) at a stock concentration of 20 mM. Stocks were kept at −20° C. and protected from light.
(§2) In vitro enzymatic reactions were used for evaluating compounds intrinsic activity against BRAF, CRAF and ARAF. […] Separate reactions were performed with the MEK1 substrate and ATP as a blank control.
(§3) For compound treatment, 5 μL/well of test substance solution are placed in a 384-well proxyplate (Perkin Elmer) and mixed with 2× concentrated kinase reactions. The dilution series is selected so that nine concentrations cover a range from 100 nM to 0.01 nM. […] The final concentration of DMSO in the assay is set at 0.05%.
(§4) BRAF and CRAF kinase reactions were carried out for a total of 2 hours at 30° C. and then stopped by ½ dilution in ADP-Glo Reagent (cat #V9102; Promega; part V912C). Reactions were then incubated for 1h at room temperature before addition of one volume of Kinase Detection Reagent (cat #V9102; Promega; part V917A). Plates were then equilibrated at room temperature for 30 minutes before detection of luminescence on a Synergy Neo2 plate reader (Biotek). The effect of each compound dilution on BRAF and CRAF kinase activity was expressed as % inhibition and calculated as follows.
(§5) IC50 values were obtained by plotting the kinase inhibition values and fitting the dose-activity curves using a log(agonist) versus response-variable slope (four parameters) function using either GraphPadPrism (V7.0) or Dotmatics Screening Ultra platform.
In general terms: ADP-Glo first removes unused ATP, then detects ADP through luciferase.

In experiment [3] the target is BRAF (Homo sapiens (Human), UniProt P15056). Description: BRAF kinase activity assay (ADP-Glo). Type of experiment: biochemical. The method, then: as §1, §2, §3, §4, §5
Where [4] appears, read: CRAF, read-out: Kinase IC50 (nM), CRAF biochemical kinase assay.
Where [5] appears, read: BRAF, read-out: Kinase IC50 (nM), BRAF biochemical kinase assay.
[6] abbreviates: HCT116 cells, class symbol before the bracket.
[7] abbreviates: read-out: Kinase IC50 (nM) CRAF.
Setting [8] is: read-out: Kinase IC50 (nM) BRAF.

CRAF, sequence (P04049 whole entry, looked up): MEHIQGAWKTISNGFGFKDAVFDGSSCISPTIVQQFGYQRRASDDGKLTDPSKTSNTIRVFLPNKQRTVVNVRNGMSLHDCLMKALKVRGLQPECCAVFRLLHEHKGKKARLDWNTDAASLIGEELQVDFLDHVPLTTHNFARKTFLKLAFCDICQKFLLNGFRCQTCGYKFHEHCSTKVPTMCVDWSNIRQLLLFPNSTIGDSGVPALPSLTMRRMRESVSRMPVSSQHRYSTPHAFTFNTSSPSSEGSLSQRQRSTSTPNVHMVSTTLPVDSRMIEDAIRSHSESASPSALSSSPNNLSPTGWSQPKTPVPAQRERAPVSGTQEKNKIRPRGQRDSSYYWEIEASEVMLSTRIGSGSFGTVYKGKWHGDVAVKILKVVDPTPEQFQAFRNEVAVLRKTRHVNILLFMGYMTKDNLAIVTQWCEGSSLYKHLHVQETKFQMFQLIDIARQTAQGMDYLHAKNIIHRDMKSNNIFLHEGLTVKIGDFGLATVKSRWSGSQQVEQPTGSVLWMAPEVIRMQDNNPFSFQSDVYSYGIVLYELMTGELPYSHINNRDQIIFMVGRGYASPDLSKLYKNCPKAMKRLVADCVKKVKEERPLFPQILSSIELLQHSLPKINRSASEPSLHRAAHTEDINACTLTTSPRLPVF
BRAF, sequence (P15056 whole entry): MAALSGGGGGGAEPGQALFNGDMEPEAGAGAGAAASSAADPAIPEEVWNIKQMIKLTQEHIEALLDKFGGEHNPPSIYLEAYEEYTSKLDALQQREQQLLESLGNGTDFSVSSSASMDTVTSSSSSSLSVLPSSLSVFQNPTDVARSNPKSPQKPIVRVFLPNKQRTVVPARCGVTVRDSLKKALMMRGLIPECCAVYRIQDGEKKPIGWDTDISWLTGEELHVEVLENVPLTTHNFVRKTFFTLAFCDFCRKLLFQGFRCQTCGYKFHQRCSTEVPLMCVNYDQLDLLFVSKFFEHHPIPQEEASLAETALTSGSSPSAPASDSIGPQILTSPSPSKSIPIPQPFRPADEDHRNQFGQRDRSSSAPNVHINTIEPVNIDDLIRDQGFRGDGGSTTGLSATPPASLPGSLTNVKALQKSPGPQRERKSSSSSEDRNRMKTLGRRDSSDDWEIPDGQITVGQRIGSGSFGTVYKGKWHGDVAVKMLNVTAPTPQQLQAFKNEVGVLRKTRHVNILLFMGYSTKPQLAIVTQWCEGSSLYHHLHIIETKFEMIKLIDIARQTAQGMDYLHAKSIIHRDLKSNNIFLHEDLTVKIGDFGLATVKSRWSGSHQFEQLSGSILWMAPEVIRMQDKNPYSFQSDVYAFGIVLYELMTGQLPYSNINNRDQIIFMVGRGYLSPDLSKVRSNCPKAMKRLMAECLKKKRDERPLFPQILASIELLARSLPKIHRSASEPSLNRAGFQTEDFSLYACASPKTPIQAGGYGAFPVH

`Cc1ncc(-c2ccc3ncnc(Nc4c(F)ccc(NS(=O)(=O)c5cccc(Cl)c5Cl)c4F)c3n2)[nH]1` [Example 595]: the half-inhibitory concentration (IC50) in experiment [1] (HCT116 cells) lay in the range of 1000 to 10000 nM; in experiment [2] (setting [4]), 10 to 50 nM; in experiment [3] (setting [5]), 1 to 10 nM. For the same molecule, the “HCT116 pERK % Ymin (lowest value of the IC50 curve)” value (“HCT116 pERK % Ymin” for short) in experiment [1] (HCT116 cells) is on record as −16%.

Take `CCC1(O)CCN(c2nccc3c2ncn3-c2ccc3ncnc(Nc4c(F)ccc(NS(=O)(=O)c5cccc(Cl)c5Cl)c4F)c3n2)CC1` [Example 691]: the IC50 was under 500 nM in experiment [1] (HCT116 cells), 10 to 50 nM in experiment [2] (setting [4]) and 1 to 10 nM in experiment [3] (setting [5]). Also, in experiment [1] (HCT116 cells), the “HCT116 pERK % Ymin” value is 6%.

As for `CN(C)c1nnc(-c2nn(-c3ccc4ncnc(Nc5c(F)ccc(NS(=O)(=O)c6cccc(Cl)c6Cl)c5F)c4n3)c3ccccc23)o1` [Example 209], the “HCT116 pERK Ymin %” value in experiment [1] (HCT116 cells, Ymin in brackets) was −6%. For the same molecule, the IC50 in experiment [1] (setting [6]) was 10000 to 30000 nM; in experiment [2] (setting [7]), 10 to 50 nM; in experiment [3] (setting [8]), 1 to 10 nM.

In the case of `CN1CCN(c2ncc(-c3ccc4ncnc(Nc5c(F)ccc(NS(=O)(=O)c6cccc(Cl)c6Cl)c5F)c4n3)s2)CC1` [Example 613], the IC50 in experiment [1] (HCT116 cells) lay within 500 to 1000 nM; in experiment [2] (setting [4]) it was 10 to 50 nM; in experiment [3] (setting [5]), 1 to 10 nM. In addition, the “HCT116 pERK % Ymin” value in experiment [1] (HCT116 cells) is recorded as −3%.

`O=S(=O)(Nc1ccc(F)c(Nc2ncnc3ccc(-n4nc(-c5ncc[nH]5)c5ccccc54)nc23)c1F)c1ccccc1Cl` [Example 213]: the “HCT116 pERK Ymin %” value in experiment [1] (HCT116 cells, Ymin in brackets) is given as −8%. For the same molecule, the half-inhibitory concentration (IC50) was 1000 to 10000 nM in experiment [1] (setting [6]), over 50 nM in experiment [2] (setting [7]) and 1 to 10 nM in experiment [3] (setting [8]).

For the molecule `O=S(=O)(Nc1ccc(F)c(Nc2ncnc3ccc(-n4cnc5c(C6CCNCC6)cccc54)nc23)c1F)c1cccc(Cl)c1Cl` [Example 662, 2,3-dichloro-N-[2,4-difluoro-3-[[6-[4-(4-piperidyl)benzimidazol-1-yl]pyrido[3,2-d]pyrimidin-4-yl]amino]phenyl]benzenesulfonamide], the “HCT116 pERK % Ymin” value in experiment [1] (HCT116 cells) is −6%. For the same molecule, the concentration for half-maximal inhibition (IC50) in experiment [1] (Homo sapiens, HCT-116, HCT116 cells) was 1000 to 10000 nM; in experiment [2], under 10 nM; in experiment [3] (setting [5]), under 1 nM.

Consider `CC(C)NCc1cccc2c1ncn2-c1ccc2ncnc(Nc3c(F)ccc(NS(=O)(=O)c4ccccc4Cl)c3F)c2n1` [Ex 222], for which the “HCT116 pERK Ymin %” value in experiment [1] (HCT116 cells, Ymin in brackets) was −11%. Moreover, the concentration for half-maximal inhibition (IC50) in experiment [1] (setting [6]) was 1000 to 10000 nM; in experiment [2] (setting [7]) it was 10 to 50 nM; in experiment [3] (setting [8]), 1 to 10 nM.

In the case of `NCc1cccc2c1ncn2-c1ccc2ncnc(Nc3c(F)ccc(NS(=O)(=O)c4ccccc4Cl)c3F)c2n1` [Ex 217], in experiment [1] (HCT116 cells, Ymin in brackets), the “HCT116 pERK Ymin %” value is on record as −9%. The 50% inhibitory concentration (IC50) in experiment [1] (setting [6]) was 1000 to 10000 nM; in experiment [2] (setting [7]), under 10 nM; in experiment [3] (setting [8]), under 1 nM.

For `O=S(=O)(Nc1ccc(F)c(Nc2ncnc3ccc(-n4cnc5c(C6(CO)CC6)cccc54)nc23)c1F)c1cccc(Cl)c1Cl` [Example 612], the IC50 in experiment [1] (HCT116 cells) is under 500 nM; in experiment [2] (setting [4]), under 10 nM; in experiment [3] (setting [5]), 1 to 10 nM. Moreover, the “HCT116 pERK % Ymin” value in experiment [1] (HCT116 cells) was −10%.

As for `Cc1cn(-c2ccc3ncnc(Nc4c(F)ccc(NS(=O)(=O)c5cccc(Cl)c5Cl)c4F)c3n2)nn1` [Example 684], the IC50 was under 500 nM in experiment [1] (HCT116 cells), under 10 nM in experiment [2] (setting [4]) and under 1 nM in experiment [3] (setting [5]). The “HCT116 pERK % Ymin” value in experiment [1] (HCT116 cells) is on record as −14%.

With `Cc1c(Cl)cccc1S(=O)(=O)Nc1ccc(F)c(Nc2ncnc3ccc(-n4nnc5c(O)cccc54)nc23)c1F` [Example 117], in experiment [1] (HCT116 cells, Ymin in brackets), the “HCT116 pERK Ymin %” value is −12%. The half-maximal inhibitory concentration (IC50) was 500 to 1000 nM in experiment [1] (setting [6]), under 10 nM in experiment [2] (setting [7]) and 1 to 10 nM in experiment [3] (setting [8]).

`O=S(=O)(Nc1cccc(Nc2ncnc3ccc(-n4cnc5ccccc54)nc23)c1F)c1cccc(Cl)c1Cl` [Example 646]: the IC50 in experiment [1] (HCT116 cells, Table 5) was under 500 nM; in experiment [2] (Table 5, read-out: Kinase IC50 (nM) CRAF) it was 10 to 50 nM; in experiment [3] (Table 5, read-out: Kinase IC50 (nM) BRAF) it was 1 to 10 nM. Moreover, the “HCT116 pERK Ymin %” value in experiment [1] (lowest value of the curve, HCT116, Table 5) is on record as −3%.

In the case of `Cc1scc(S(=O)(=O)Nc2ccc(F)c(Nc3ncnc4ccc(-n5cnc6ccccc65)nc34)c2F)c1C` [Example 320], the half-inhibitory concentration (IC50) in experiment [1] (HCT116 cells, 1 h treatment) was 1000 to 10000 nM; in experiment [2] (setting [7]), over 50 nM; in experiment [3] (setting [8]), 1 to 10 nM. Also, the “HCT116 pERK Ymin %” value in experiment [1] (lowest % inhibition value of the IC50 curve, HCT116) is recorded as −5%.
